Data taken from paper PMC9621195 (Journal for Immunotherapy of Cancer, 2022).

Target: cathepsin B (Homo sapiens, UniProt P07858)
Assay: microscale thermophoresis with CTSB-WT-EGFP in HCT-116 cell lysate
Type: binding

Structure (SMILES): CC(C)(O)[C@@H]1CC[C@](C)([C@H]2[C@@H](O)C[C@@]3(C)[C@@H]4C[C@H](O)[C@H]5C(C)(C)[C@@H](O)CC[C@@]56C[C@@]46CC[C@]23C)O1 [CAG, Cycloastragenol]
- Kd: 26.6 nM
